# Experimental data as given in patent US12396997B2, “Methods of treatment with an iboga alkaloid” (priority 2022, dated 2025).
# “And” between values parts separate entries of the source, which are not always exact repeats. Equal values may be shown once. “Also recorded” adds a separate entry of the source.
# How the values were obtained:
# [1] = orally administered to humans; cited from earlier work
# [2] = tested on: special operations veterans with history of TBI; assay: World Health Organization Disability Assessment Scale 2.0 (WHODAS 2.0); type: in vivo, human; settings: for WHODAS 2.0 Subscale Self Care: baseline 5.2% ± 9.2%; for WHODAS 2.0 Subscale Mobility: baseline 14.7% ± 15.7%
# Method: (§1) Thirty, male, navy seal or army special forces veterans, ages 33-58 years (mean 44.5 years), were enrolled. Of the 30 participants, 27 were Caucasian, 1 was Hispanic and 2 were Native American. Body mass index was between 17-35 kg/m^2.
# (§2) With subjects in the fasting state, an intravenous infusion of 1 gram of magnesium sulfate was administered 1-2 hours prior to treatment. […] Medical staff (MD, RN, or EMT) were onsite at a ratio of at least 1 staff per 2 patients throughout treatment for monitoring and management, but no specific coaching or psychological support was provided during treatment.
# Post treatment, each subject was assessed four days after treatment, one month after treatment, and, if willing, one year after treatment. The post-treatment assessments conducted at four days and at one month after treatment included neuropsychological testing, measures of PTSD, depression, anxiety, mystical experiences, functional imaging and EEG. Post-treatment assessments conducted at one year after treatment included PTSD, depression, and anxiety measures.
# World Health Organization Disability Assessment Scale 2.0 (WHODAS 2.0) was used as a measure of function. WHODAS was used to assess the impact of health conditions across six life domains (cognition, mobility, self-care, interpersonal, life activities, and community participation) and it is sensitive to change over time (Gold, L. H., J. Am. Acad. Psychiatry Law 42, 9 (2014). Each item in the assessment is rated on a scale ranging from no problems to extreme problems (Üstün, T. B. et al., Measuring health and disability: Manual for WHO disability assessment schedule WHODAS 2.0. (World Health Organization, 2010)). To capture inter-individual variability in disability the WHODAS complex scoring method was used. Raw scores were converted to a metric ranging from 0 (no disability) to 100 (full disability), by calculating the ratio of the participant's score relative to the maximum possible score in each domain as well as to the total score (Id.). A score of 20%-39% was considered mild, 40%-59% was moderate, 60%-79% was moderate-severe and 80%-100% was severe. Scores from baseline were compared to scores from one-month post treatment.
# [3] = tested on: brain-derived neurotrophic factor (BDNF) and glial cell line-derived neurotrophic factor (GDNF); settings: literature; cited from earlier work
# [4] = tested on: special operations veterans with history of TBI; assay: Hamilton Anxiety Rating Scale (HAM-A); type: in vivo, human
# Method: as §1, §2
# Post treatment, each subject was assessed four days after treatment, one month after treatment, and, if willing, one year after treatment. The post-treatment assessments conducted at four days and at one month after treatment included neuropsychological testing, measures of PTSD, depression, anxiety, mystical experiences, functional imaging and EEG. Post-treatment assessments conducted at one year after treatment included PTSD, depression, and anxiety measures. […]
# [5] = tested on: people; settings: in vivo; cited from earlier work
# [6] = tested on: special operations veterans with history of TBI; settings: in vivo
# [7] = tested on: special operations veterans with history of TBI; assay: Safety monitoring during and after ibogaine treatment (adverse events, QTc by ECG); type: in vivo, human
# Method: 12 participants (40%) were treated for headache. 7 (23%) for nausea. 3 (10%) for anxiety. 2 (7%) for hypertension, and 1 (3%) for insomnia.
# as §2
# [8] = effect size, Baseline vs One-Month
# [9] = effect size, Baseline vs Post-Treatment
compound,measurement,setting,value
CCC1CC2CC3c4[nH]c5ccc(OC)cc5c4CCN(C2)C13 (stereo not drawn) [ibogaine],half-life,[1],about 7.5 hours
same,WHODAS 2.0 Subscale Self Care,"[2]; One-Month, mean, SD 2.9%",1.0% ±
same,WHODAS 2.0 Subscale Mobility,"[2]; One-Month, mean, SD 3.3%",1.3% ±
same,WHODAS 2.0 Subscale Cognition,"[2]; One-Month, mean, SD 7.9%, baseline 36.1% ± 14.6%",5.0% ±
same,WHODAS 2.0 Subscale Interpersonal,"[2]; One-Month, mean, SD 9.5%, baseline 32.3% ± 20.4",4.8% ±
same,WHODAS 2.0 Subscale Community Participation,"[2]; One-Month, mean, SD 13.1%, baseline 35.6% ± 21.1%",5.9% ±
same,WHODAS 2.0 Subscale Life Activities,"[2]; One-Month, mean, SD 16.2%, baseline 41.1% ± 24.8%",9.1% ±
same,WHODAS 2.0 Subscale Self Care,"[2]; Post-Treatment, mean, SD 4.7%",1.9% ±
same,WHODAS 2.0 Subscale Mobility,"[2]; Post-Treatment, mean, SD 13.5%",7.2% ±
same,"WHODAS 2.0 Subscale Mobility, D",[2]; [8],0.83
same,"WHODAS 2.0 Subscale Self Care, D",[2]; [8],0.51
same,"WHODAS 2.0 Subscale Cognition, D",[2]; [9],0.96
same,"WHODAS 2.0 Subscale Community Participation, D",[2]; [9],0.53
same,"WHODAS 2.0 Subscale Interpersonal, D",[2]; [9],0.60
same,"WHODAS 2.0 Subscale Life Activities, D",[2]; [9],0.48
same,"WHODAS 2.0 Subscale Mobility, D",[2]; [9],0.53
same,"WHODAS 2.0 Subscale Self Care, D",[2]; [9],0.37
same,Transcription of neurotrophic factors BDNF and GDNF,[3],increases the transcription
same,Cohen's D on clinician rated psychiatric assessments (anxiety),[4]; following treatment vs baseline,> 2
same,Remission rate for comorbid anxiety,[4]; secondary analyses,around 80%
same,People who may suffer cardiac arrest when treated,[5],Approximately 1 in 300
same,Declines across any performance domain,[6],No declines
same,Executive functioning effect size D,[6],0.31-1.22
same,Performance change in language (semantic fluency),[6],No significant performance changes
same,Phonemic Fluency (D-KEFS Verbal Fluency),[6],64.0 ± 10.1 T score
same,Processing speed effect size D,[6],0.97-1.34
same,Reaction Time (CPT-3 Reaction Time),[6],44.1 ± 6.8 T score and 46.4 ± 8.1 T score
same,Slowing of reaction time effect size D,[6],0.29-0.52
same,Sustained Attention (CPT-3 Hit Reaction Time Block Change),[6],50.8 ± 7.9 T score and 51.2 ± 7.7 T score
same,Sustained attention accuracy (detection) effect size D,[6],0.86-1.05
same,Verbal Memory (HVLT-R),[6],49.0 ± 9.2 T score
same,Working Memory (WMI (WAIS-IV)),[6]; iv,57.0 ± 9.5 T score
same,Unexpected or serious treatment-emergent side effects / adverse events,"[7]; 30 participants, oral ibogaine 12.1±1.2 mg/kg with iv magnesium sulfate, 1.2 mg/kg",no unexpected or serious treatment-emergent side effects; also recorded: no serious or unexpected adverse events
same,Concerning prolongation of QTc,[7]; continuous 5-lead ECG,no instances of a concerning prolongation of QTc
same,Participants treated for insomnia,"[7]; during oneirogenic effects, 1 participant",3%
same,Participants treated for hypertension,"[7]; during oneirogenic effects, 2 participants",7%
same,Participants treated for anxiety,"[7]; during oneirogenic effects, 3 participants",10%
same,Participants treated for nausea,"[7]; during oneirogenic effects, 7 participants",23%
same,Participants treated for headache,"[7]; during oneirogenic effects, 12 participants",40%
